According to PubChem BioAssay (NCI):
“And” between values parts separate entries of the source, which are not always exact repeats. Equal entries are not always repeated.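 Five compound concentrations were applied to cells in 96-well plates for 48 hours; endpoints were derived by simple linear interpolation of the resulting dose-response curve. Abbreviation: GI50, concentration required for 50% inhibition of growth. TGI is the concentration that stops growth completely.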

Experiments:
Test in all cases: DTP human tumour cell line panel, 48 h
786-0 renal = tested on: 786-0 renal
HOP-62 NSCLC = tested on: HOP-62 NSCLC
K-562 leukemia = tested on: K-562 leukemia
M14 melanoma = tested on: M14 melanoma
M19-MEL melanoma = tested on: M19-MEL melanoma
NCI-H460 lung = tested on: NCI-H460 lung
SN12C renal = tested on: SN12C renal
SNB-19 CNS = tested on: SNB-19 CNS
DLD-1 colon = tested on: DLD-1 colon
SR leukemia = tested on: SR leukemia

| Structure (SMILES) | TGI (786-0 renal) | TGI (HOP-62 NSCLC) | TGI (K-562 leukemia) | TGI (M14 melanoma) | TGI (M19-MEL melanoma) | TGI (NCI-H460 lung) | TGI (SN12C renal) | TGI (SNB-19 CNS) | TGI (DLD-1 colon) | TGI (SR leukemia) | GI50 (786-0 renal) | GI50 (DLD-1 colon) | GI50 (HOP-62 NSCLC) | GI50 (K-562 leukemia) | GI50 (M14 melanoma) | GI50 (M19-MEL melanoma) | GI50 (NCI-H460 lung) | GI50 (SN12C renal) | GI50 (SNB-19 CNS) |
| --- | --- | --- | --- | --- | --- | --- | --- | --- | --- | --- | --- | --- | --- | --- | --- | --- | --- | --- | --- |
| Cc1cc(NS(=O)(=O)c2ccc(NC(=O)c3ccc(Cl)c4c(Nc5ccc(S(=O)(=O)Nc6cc(C)on6)cc5)c5ccccc5nc34)cc2)no1 | 32.2 µM | 55 µM | 64.3 µM | 49.4 µM | 50.3 µM | 53.9 µM | 41.7 µM | 32.4 µM |  |  |  |  |  |  |  |  |  |  |  |
| CC(C)(C)c1cc(C2c3cc4c(cc3OC(O)(CO)C2C(=O)O)OCO4)cc(C(C)(C)C)c1O (stereo not given) (tested in a mixture with another compound) | 33.8 µM | 53.1 µM | 29.6 µM | 30.7 µM | 28.6 µM | 33.3 µM | 31 µM | 25.7 µM | 33.2 µM |  |  |  |  |  |  |  |  |  |  |
| CC(C)(C)C1=CC(=N/N=c2\scc(-c3ccccc3)n2Cc2ccccc2)C=C(C(C)(C)C)C1=O | > 100 µM | > 100 µM | > 100 µM | > 100 µM | > 100 µM | > 100 µM | > 100 µM | > 100 µM |  | > 100 µM |  |  |  |  |  |  |  |  |  |
| N#CN1CC[C@@H]2CC3(CCC2C1)OCCO3 (stereo not given in full) | > 100 µM | > 100 µM | > 100 µM | > 100 µM | > 100 µM | > 100 µM | > 100 µM | > 100 µM | > 100 µM | > 100 µM |  |  |  |  |  |  |  |  |  |
| NC(CSC(c1ccccc1)(c1ccccc1)c1ccccc1)C(=O)O (stereo not given) | 70.3 µM and > 100 µM | 63 µM and > 100 µM | 31.9 µM and > 100 µM | 6.01 µM and 16.2 µM and 27.5 µM | 117 µM | 21 µM and 15.8 µM | 23.8 µM and 68.3 µM and > 100 µM | 63.9 µM and > 100 µM | 125 µM | 19.3 µM and 43.8 µM | 1.41 µM and 4.24 µM | 0.831 µM | 19.3 µM and 4.5 µM | 1.76 µM and 0.775 µM | 0.426 µM and 0.389 µM | 5.07 µM | 2.07 µM | 2.99 µM and 0.877 µM | 2.26 µM and 5.8 µM |
| COc1ccc2nc3cc(Cl)ccc3c(Sc3ccc(N)cc3)c2c1 | 19.8 µM | 49.8 µM | 13.8 µM | 22 µM | 20.2 µM | 21.1 µM | 24 µM | 33.4 µM | 19.8 µM | 11.4 µM |  |  |  |  |  |  |  |  |  |
| O=C1c2ccccc2C(=O)c2c1ccc1conc21 | 5.79 µM | 9.11 µM | 42.5 µM | 5.7 µM | 3.09 µM | 12.2 µM | 3.61 µM | 11.5 µM | 7.15 µM | 18.3 µM |  |  |  |  |  |  |  |  |  |
| C=CC[P@]1(=O)O[C@H](c2ccccc2)C(C)N1C(C)C (stereo not given in full) | > 100 µM | > 100 µM | > 100 µM | > 100 µM | > 100 µM | > 100 µM | > 100 µM | > 100 µM | > 100 µM | > 100 µM |  |  |  |  |  |  |  |  |  |
| CC1=CC(=O)NP(=O)(Oc2ccc(Cl)cc2)N1 (stereo not given) | > 100 µM | > 100 µM | > 100 µM | > 100 µM | > 100 µM | > 100 µM | > 100 µM | > 100 µM | > 100 µM | > 100 µM |  |  |  |  |  |  |  |  |  |
| CC(=O)/C=C1\CC(=O)N(C)c2ccccc2N1 | > 100 µM | > 100 µM | > 100 µM | > 100 µM | > 100 µM | > 100 µM | > 100 µM | > 100 µM | 22.9 µM | > 100 µM |  |  |  |  |  |  |  |  |  |
